Results published in ChEMBL document CHEMBL5724914, “Linking interpersonal differences in gut microbiota composition and drug biotransformation activity” (2024).

Experiments:
[1] = The drug is tested on Z-001 corresponding to mouse gut metagenome with ENA study accession number: PRJEB37062 and ENA sample accession number: ERS12561801 for biotransformation under anaerobic condition. The drug concentrations were measured over 9 timepoints collected between 0 and 24 hours of incubation by liquid-chromatography-coupled mass spectrometry (LC–MS); details: 2 µM
[2] = The drug is tested on Z-017 corresponding to mouse gut metagenome with ENA study accession number: PRJEB37062 and ENA sample accession number: ERS12561816 for biotransformation under anaerobic condition. The drug concentrations were measured over 9 timepoints collected between 0 and 24 hours of incubation by liquid-chromatography-coupled mass spectrometry (LC–MS); details: 2 µM
[3] = human gut metagenome, 24 h, 2 µM
[4] = human gut metagenome, 24 h, 2 µM; remark: listed apart in the source
[5] = human gut metagenome, 24 h, 2 µM; remark: listed apart in the source
[6] = The drug is tested on WLS-010 corresponding to human gut metagenome with ENA study accession number: PRJEB37062 and ENA sample accession number: ERS12561743 for biotransformation under anaerobic condition. The drug concentrations were measured over 9 timepoints collected between 0 and 24 hours of incubation by liquid-chromatography-coupled mass spectrometry (LC–MS); details: 2 µM
[7] = The drug is tested on WLS-007 corresponding to human gut metagenome with ENA study accession number: PRJEB37062 and ENA sample accession number: ERS12561742 for biotransformation under anaerobic condition. The drug concentrations were measured over 9 timepoints collected between 0 and 24 hours of incubation by liquid-chromatography-coupled mass spectrometry (LC–MS); details: 2 µM
[8] = human gut metagenome, 24 h, 2 µM; remark: listed apart in the source
[9] = human gut metagenome, 24 h, 2 µM; remark: listed apart in the source
[10] = The drug is tested on Z-016 corresponding to mouse gut metagenome with ENA study accession number: PRJEB37062 and ENA sample accession number: ERS12561815 for biotransformation under anaerobic condition. The drug concentrations were measured over 9 timepoints collected between 0 and 24 hours of incubation by liquid-chromatography-coupled mass spectrometry (LC–MS); details: 2 µM
[11] = The drug is tested on Z-029 corresponding to rat gut metagenome with ENA study accession number: PRJEB37062 and ENA sample accession number: ERS12561828 for biotransformation under anaerobic condition. The drug concentrations were measured over 9 timepoints collected between 0 and 24 hours of incubation by liquid-chromatography-coupled mass spectrometry (LC–MS); details: 2 µM
[12] = The drug is tested on WLS-310 corresponding to human gut metagenome with ENA study accession number: PRJEB37062 and ENA sample accession number: ERS12561785 for biotransformation under anaerobic condition. The drug concentrations were measured over 9 timepoints collected between 0 and 24 hours of incubation by liquid-chromatography-coupled mass spectrometry (LC–MS); details: 2 µM
[13] = The drug is tested on Z-026 corresponding to metagenome with ENA study accession number: PRJEB37062 and ENA sample accession number: ERS12561825 for biotransformation under anaerobic condition. The drug concentrations were measured over 9 timepoints collected between 0 and 24 hours of incubation by liquid-chromatography-coupled mass spectrometry (LC–MS); details: 2 µM
[14] = human gut metagenome, 24 h, 2 µM; remark: listed apart in the source
[15] = human gut metagenome, 24 h, 2 µM; remark: listed apart in the source
[16] = human gut metagenome, 24 h, 2 µM; remark: listed apart in the source
[17] = The drug is tested on Z-014 corresponding to rat gut metagenome with ENA study accession number: PRJEB37062 and ENA sample accession number: ERS12561814 for biotransformation under anaerobic condition. The drug concentrations were measured over 9 timepoints collected between 0 and 24 hours of incubation by liquid-chromatography-coupled mass spectrometry (LC–MS); details: 2 µM
[18] = The drug is tested on Z-019 corresponding to rat gut metagenome with ENA study accession number: PRJEB37062 and ENA sample accession number: ERS12561818 for biotransformation under anaerobic condition. The drug concentrations were measured over 9 timepoints collected between 0 and 24 hours of incubation by liquid-chromatography-coupled mass spectrometry (LC–MS); details: 2 µM
[19] = The drug is tested on Z-028 corresponding to mouse gut metagenome with ENA study accession number: PRJEB37062 and ENA sample accession number: ERS12561827 for biotransformation under anaerobic condition. The drug concentrations were measured over 9 timepoints collected between 0 and 24 hours of incubation by liquid-chromatography-coupled mass spectrometry (LC–MS); details: 2 µM
[20] = The drug is tested on Z-008 corresponding to metagenome with ENA study accession number: PRJEB37062 and ENA sample accession number: ERS12561808 for biotransformation under anaerobic condition. The drug concentrations were measured over 9 timepoints collected between 0 and 24 hours of incubation by liquid-chromatography-coupled mass spectrometry (LC–MS); details: 2 µM
Note: call rule not given here.

| SMILES | Bacterial Biotransformation [1] | Bacterial Biotransformation [2] | Bacterial Biotransformation [3] | Bacterial Biotransformation [4] | Bacterial Biotransformation [5] | Bacterial Biotransformation [6] | Bacterial Biotransformation [7] | Bacterial Biotransformation [8] | Bacterial Biotransformation [9] | Bacterial Biotransformation [10] | Bacterial Biotransformation [11] | Bacterial Biotransformation [12] | Bacterial Biotransformation [13] | Bacterial Biotransformation [14] | Bacterial Biotransformation [15] | Bacterial Biotransformation [16] | Bacterial Biotransformation [17] | Bacterial Biotransformation [18] | Bacterial Biotransformation [19] | Bacterial Biotransformation [20] |
| --- | --- | --- | --- | --- | --- | --- | --- | --- | --- | --- | --- | --- | --- | --- | --- | --- | --- | --- | --- | --- |
| CN1CCc2cccc3c2[C@H]1Cc1ccc(O)c(O)c1-3 [APOMORPHINE] | Compound NOT metabolized | Compound NOT metabolized | Compound NOT metabolized | Compound NOT metabolized | Compound NOT metabolized | Compound NOT metabolized | Compound NOT metabolized | Compound NOT metabolized | Compound NOT metabolized | Compound NOT metabolized | Compound NOT metabolized | Compound NOT metabolized | Compound NOT metabolized | Compound NOT metabolized | Compound NOT metabolized | Compound NOT metabolized | – | – | – | – |
| C[C@@H]1CC[C@H]2[C@@H](C)C(=O)O[C@@H]3O[C@@]4(C)CC[C@@H]1[C@]32OO4 [ARTEMISININ] | – | – | – | – | – | Compound metabolized | Compound metabolized | Compound metabolized | Compound metabolized | Compound metabolized | Compound metabolized | Compound metabolized | Compound metabolized | Compound metabolized | Compound metabolized | Compound NOT metabolized | Compound metabolized | Compound metabolized | Compound metabolized | – |
| CC(C)c1c(C(=O)Nc2ccccc2)c(-c2ccccc2)c(-c2ccc(F)cc2)n1CC[C@@H](O)C[C@@H](O)CC(=O)O [ATORVASTATIN] | Compound NOT metabolized | Compound NOT metabolized | Compound metabolized | Compound metabolized | Compound NOT metabolized | – | Compound metabolized | Compound metabolized | Compound NOT metabolized | Compound NOT metabolized | Compound NOT metabolized | Compound metabolized | Compound NOT metabolized | Compound metabolized | Compound NOT metabolized | Compound NOT metabolized | Compound NOT metabolized | Compound NOT metabolized | Compound NOT metabolized | Compound NOT metabolized |
| CCN(CC)C(=O)/C(C#N)=C/c1cc(O)c(O)c([N+](=O)[O-])c1 [ENTACAPONE] | Compound metabolized | Compound metabolized | – | – | – | – | – | – | Compound metabolized | Compound metabolized | Compound metabolized | – | Compound metabolized | – | – | – | Compound metabolized | Compound NOT metabolized | Compound metabolized | Compound metabolized |
| CC(C)OC(=O)C(C)(C)Oc1ccc(C(=O)c2ccc(Cl)cc2)cc1 [FENOFIBRATE] | Compound NOT metabolized | Compound metabolized | Compound metabolized | Compound metabolized | Compound NOT metabolized | Compound NOT metabolized | – | Compound NOT metabolized | Compound metabolized | Compound metabolized | Compound NOT metabolized | Compound metabolized | Compound metabolized | Compound NOT metabolized | Compound NOT metabolized | Compound NOT metabolized | Compound metabolized | Compound NOT metabolized | Compound metabolized | Compound metabolized |
| COc1c2occc2cc2ccc(=O)oc12 [METHOXSALEN] | Compound NOT metabolized | Compound metabolized | Compound metabolized | – | Compound NOT metabolized | Compound metabolized | – | Compound metabolized | Compound NOT metabolized | Compound metabolized | Compound NOT metabolized | Compound metabolized | Compound metabolized | Compound metabolized | Compound metabolized | Compound metabolized | Compound NOT metabolized | Compound NOT metabolized | Compound metabolized | Compound metabolized |
| COc1ccc2[nH]c([S+]([O-])Cc3ncc(C)c(OC)c3C)nc2c1 (stereo not given) [OMEPRAZOLE] | Compound NOT metabolized | Compound NOT metabolized | Compound metabolized | Compound metabolized | Compound metabolized | – | Compound metabolized | Compound metabolized | Compound metabolized | Compound metabolized | Compound metabolized | Compound metabolized | Compound metabolized | Compound metabolized | Compound metabolized | Compound metabolized | Compound NOT metabolized | Compound NOT metabolized | Compound metabolized | Compound metabolized |
